The assay relates to HCT-116 cells. Description: In vitro cells' growth inhibition assay. As to conditions: Homo sapiens, HCT-116, 48 h, read-out: EC50 [µM] HCT-116.

The results in this text go back to PMC4779441 (International journal of peptide research and therapeutics, 2015).

Broadly, the EC50 is the midpoint of the concentration-response curve.

As to `CC(=O)O[C@@]12CO[C@@H]1C[C@H](O)[C@@]1(C)C(=O)[C@H](O)C3=C(C)[C@@H](OC(=O)[C@H](O)[C@@H](NC(=O)OC(C)(C)C)c4ccccc4)C[C@@](O)([C@@H](OC(=O)c4ccccc4)[C@H]21)C3(C)C` [DTX, Docetaxel], the 50% effective concentration (EC50) was found to be 74.5 ± 3.7 µM.
